Tests used:
[1] = test system: normal human neuroprogenitors; assay: Self-renewal assay of normal human neuroprogenitor neurospheres; assay type: cell-based; settings: 100 pM TGFβ1 or 20 ng/ml LIF, 7 days
Experimental: FIG. 8. Effect of TGFβ on the capacity of self-renewal of normal human neuroprogenitors. (A) Immunocytochemistry of the indicated markers was performed in human neuroprogenitor neurospheres. (B) Neurospheres of the sample of GBM1 and of human neuroprogenitors were incubated with the indicated members of the 100 pM TGFβ family for 3 hours and the mRNA levels of LIF were determined. (C, D) Neurosphere cells of normal human neuroprogenitors were incubated in the same conditions that have been described above in FIG. 1D in the presence of 100 pM TGFβ1 or 20 ng/ml LIF for 7 days and the number of newly formed neurospheres (C) and the number total of cells (D) were determined.
The U373MG and A172 cells were a generous gift from J. Rich and D. Bigner and were cultured in DMEM with 10% fetal bovine serum (FBS). The primary culture of tumor cells (PCTC) and the GBM neurospheres were generated as described (Bruna et al., (2007) Cancer Cell 11, 147-160; Gunther et al., (2008) Oncogene. May 1; 27(20):2897-909). Briefly, the samples of tumors were processed in the 30 minutes after the surgical resection. The ground pieces of the samples of human gliomas were digested with 200 U/ml collagenase I (Sigma) and 500 U/ml of DNase I (Sigma) in PBS for 2 hours at 37° C. and with constant vigorous stirring. The suspension of individual cells was filtered through a 70 μm cell filter (BD Falcon) and washed with PBS. Finally, the cells were resuspended and subsequently cultured in DMEM with 10% FBS, for the culture of PCTCs, or in neurosphere medium in the case of the GBM neurospheres. The neurospheres of normal human neuroprogenitors were generated from human embryonic cerebral cortex tissue (12-16 weeks after the conception) collected after voluntary abortions. The samples were processed and cultured as described (Poltavtseva et al. (2002) Brain Res Dev Brain Res 134, 149-154). The neurosphere medium consists of neurobasal medium (Gibco) supplemented with B27 (Gibco), L-glutamine (Gibco), penicillin/streptomycin, and growth factors (20 ng/mL EGF and 20 ng/mL FGF-2 (Peprotech)).
The self-renewal of the neurospheres was evaluated by seeding an identical number of cells at a very low density in wells of a 96-well plate. The cells were treated, in the absence of growth factors, with the indicated compounds and the total number of new neurospheres formed after 7 days in culture was counted (Lee et al. (2008) Cancer Cell 13, 69-80; Reynolds and Weiss, (1996) Dev Biol 175, 1-13; Seaberg and van der Kooy, (2002) J Neurosci 22, 1784-1793).
It was decided to assess whether this effect was specific to tumor cells or was also present in normal neuroprogenitor cells. To answer this question, neuroprogenitor cells were obtained from samples of human fetal cerebral cortex (from 12 to 16 weeks after conception). As has been previously described (Carpenter et al., 1999, Exp Neurol, 158: 265-278; Poltavtseva et al., 2002, Brain Res Dev Brain Res, 134: 149-154; Wright et al., 2003, J Neurochem, 86: 179-195), human neuroprogenitors generated neurospheres when they were grown in serum-free medium supplemented with EGF and FGF and these neurospheres expressed Musashi-1, Sox2 and Nestin similarly to GBM neurospheres (FIG. 8A). First, it was determined if TGFβ induced LIF in normal human neuroprogenitors. […] In fact, the neurospheres treated with TGFβ were smaller and the total number of cells had decreased due to the presence of TGFβ (FIG. 8C, 8D). On the other hand, LIF increased the number and size of the newly formed neurospheres as well as the total number of cells (FIG. 8C, 8D) according to previous articles (Bauer and Patterson, 2006; Wright et al., 2003). Thus, LIF has the same effect on the self-renewal in GBM and normal neurospheres. On the contrary, there is a difference in the effect of TGFβ on the capacity for self-renewal of normal and tumor neurospheres due to the incapacity of TGFβ to induce LIF normal in neuroprogenitors.

GBM neurospheres = assay: Differentiation of GBM neurospheres (neuroprogenitor markers, adhesion); assay type: cell-based, human; settings: 7 days without EGF or FGF; for adhesion to the culture plate / morphology versus control cells: GBM neurospheres, poly-L-lysine
Experimental: FIG. 7. TGFβ and LIF prevent the differentiation of GBM neurospheres. (A) Immunocytochemistry of the indicated proteins was performed in neurospheres derived from GBM1 treated with 100 pM TGFβ1 or 20 ng/ml LIF for 7 days in the absence of growth factors and the last 3 days on slides coated with poly-L-lysine. (B) The mRNA levels of Musashi-1 (Msi-1), Sox2 and Nestin were determined in GBM1 neurospheres after 7 days of the indicated treatments without growth factors. The RNA levels of 18S were used as an internal normalization control.
The immunocytochemistry of neurospheres and differentiated neurospheres was performed as described (Geshwind et al., 2001) using the following antibodies: anti-nestin (Chemicon), anti-GFAP (Dako), anti-TuJ1 (Chemicon), anti-04 (Chemicon), anti-Sox2 (Chemicon), anti-α-tubulin (Sigma). The nuclei were counterstained with 4′,6-diamino-2-phenylindole (DAPI).
qRT-PCR was performed using Taqman probes from Applied Biosystems, according to the manufacturer's recommendations. The reactions were carried out in a ABI 7000 sequence detector (Perkin Elmer) and the results were expressed as the fold change calculated by means of the DDCt method relative to the control sample or the first quantified sample. The ribosomal unit of 18S or β-actin were used as internal normalization controls.
The neurospheres derived from GBMs grown in the absence of growth factors and seeded in poly-L-lysine-coated plates tend to differentiate losing the expression of the neuroprogenitor markers Musashi-1, Sox2 and Nestin, and being adhered to the culture plate. It was decided to evaluate the effect of TGFβ and LIF on this differentiation process. The neurospheres were cultured in the presence of TGFβ or LIF without EGF or FGF for 7 days and subsequently processed for immunohistochemical staining and qRT-PCR assays for determining the levels of the neuroprogenitor markers Musashi-1, Sox2 and Nestin.

Row | Substance | number of newly formed neurospheres (normal neuroprogenitors) [1] | size of neurospheres (normal neuroprogenitors) [1] | total number of cells (normal neuroprogenitors) [1] | expression of Musashi-1, Sox2 and Nestin (immunocytochemistry, qRT-PCR) (GBM neurospheres; GBM1 neurospheres, 100 pM TGFβ1 or 20 ng/ml LIF) | adhesion to the culture plate / morphology versus control cells (GBM neurospheres)
1 | LIF: recombinant leukemia inhibitory factor, an IL-6 type cytokine (Chemicon) | increased | increased | increased | maintained the expression | adhered less to the culture plate
2 | TGFβ: TGFβ1 (R&D Systems), used at 100 pM according to the figure legends | did not increase | smaller | decreased |  | adhered less to the culture plate

— patent publication US11999782B2, “Therapeutic agents for the treatment of diseases associated with undesired cell proliferation” (Fundació Privada Institutció Catalana de Recerca I Estudis …, priority 2009, dated 2024)
